The source made the active and inactive calls. The calls are words filed in the database; no cut-off is given here.
Tests used:
[1] = target: T1, Protein cereblon/Androgen receptor (Homo sapiens) (UniProt P10275+Q96SW2); assay: PROTAC activity at Influenza A virus A/WSN/33(H1N1) flag tagged Polymerase acidic protein/CRBN (unknown origin) expressed in HEK293T cells assessed as degradation of PA expression at 5 uM incubated for 24 hrs by Western blotting analysis; type: cell-based
[2] = target: T1, Protein cereblon/Androgen receptor (Homo sapiens); assay: PROTAC activity at Influenza A virus A/WSN/33(H1N1) flag tagged Polymerase acidic protein/CRBN (unknown origin) expressed in HEK293T cells assessed as degradation of PA expression at 10 uM incubated for 16 hrs by Western blotting analysis; type: cell-based
Influenza A virus [3] = assay: Anti-influenza activity against Influenza A virus A/WSN/33(H1N1) infected in HEK293T cells assessed as reduction in virus-induced cytopathic effect incubated for 48 hrs by CCK-8 assay; type: functional, organism-based; details: HEK-293T
[4] = Cytotoxicity against human HEK293T cells assessed as reduction in cell viability incubated for 48 hrs by CCK-8 assay; type: toxicity, cell-based, HEK-293T
[5] = target: T2, von Hippel-Lindau disease tumor suppressor/Polymerase basic protein 1 (Influenza A virus (strain A/Puerto Rico/8/1934 H1N1)) (UniProt P03431+P40337); assay: PROTAC activity at Influenza A virus A/WSN/33(H1N1) flag tagged Polymerase basic protein 1/VHL (unknown origin) expressed in HEK293T cells assessed as degradation of PB1 expression at 1 ug/ml incubated for 24 hrs by Western blotting analysis; type: cell-based; details: dose 1.0 µg/ml
[6] = target: T3, von Hippel-Lindau disease tumor suppressor/Polymerase basic protein 2 (Influenza A virus (strain A/Puerto Rico/8/1934 H1N1)) (UniProt P40337+P03428); assay: PROTAC activity at Influenza A virus A/WSN/33(H1N1) flag tagged Polymerase basic protein 2/VHL (unknown origin) expressed in HEK293T cells assessed as degradation of PB2 expression at 1 ug/ml incubated for 24 hrs by Western blotting analysis; type: cell-based; details: dose 1.0 µg/ml
[7] = target: T3, von Hippel-Lindau disease tumor suppressor/Polymerase basic protein 2 (Influenza A virus (strain A/Puerto Rico/8/1934 H1N1)); assay: PROTAC activity at Influenza A virus A/WSN/33(H1N1) flag tagged Polymerase basic protein 2/VHL (unknown origin) expressed in HEK293T cells assessed as degradation of PB2 expression at 10 ug/ml incubated for 24 hrs by Western blotting analysis; type: cell-based; details: dose 10.0 µg/ml
Influenza B virus [8] = assay: Anti-influenza activity against Influenza B virus Victoria/2/87 infected in HEK293T cells assessed as reduction in virus-induced cytopathic effect incubated for 48 hrs by CCK-8 assay; type: functional, organism-based; details: Victoria/2/87, HEK-293T
[9] = target: T2, von Hippel-Lindau disease tumor suppressor/Polymerase basic protein 1 (Influenza A virus (strain A/Puerto Rico/8/1934 H1N1)); assay: PROTAC activity at Influenza A virus A/WSN/33(H1N1) flag tagged Polymerase basic protein 1/VHL (unknown origin) expressed in HEK293T cells assessed as degradation of PB1 expression at 10 ug/ml incubated for 24 hrs by Western blotting analysis; type: cell-based; details: dose 10.0 µg/ml
[10] = target: T2, von Hippel-Lindau disease tumor suppressor/Polymerase basic protein 1 (Influenza A virus (strain A/Puerto Rico/8/1934 H1N1)); assay: PROTAC activity at Influenza A virus A/WSN/33(H1N1) flag tagged Polymerase basic protein 1/VHL (unknown origin) expressed in HEK293T cells assessed as degradation of PB1 expression at 0.1 to 10 uM incubated for 24 hrs by Western blotting analysis; type: cell-based; details: dose 0.1-10 µM
[11] = target: von Hippel-Lindau disease tumor suppressor/Polymerase acidic protein (Influenza A virus (A/Puerto Rico/8/1934(H1N1)), UniProt P03433+P40337); assay: PROTAC activity at Influenza A virus A/WSN/33(H1N1) flag tagged Polymerase acidic protein/VHL (unknown origin) expressed in HEK293T cells assessed as degradation of PA expression incubated for 24 hrs by Western blotting analysis; type: cell-based
Influenza B virus [12] = assay: Anti-influenza activity against Influenza B virus Yamagata/16/88 infected in HEK293T cells assessed as reduction in virus-induced cytopathic effect incubated for 48 hrs by CCK-8 assay; type: functional, organism-based; details: Yamagata/16/88, HEK-293T
[13] = Selectivity index, ratio of CC50 for cytotoxicity against human HEK293T cells to EC50 for anti-influenza activity against Influenza A virus A/WSN/33(H1N1) infected in HEK293T cells assessed as reduction in virus-induced cytopathic effect; type: toxicity, cell-based; details: read-out: Ratio CC50/EC50
[14] = target: T3, von Hippel-Lindau disease tumor suppressor/Polymerase basic protein 2 (Influenza A virus (strain A/Puerto Rico/8/1934 H1N1)); assay: PROTAC activity at Influenza A virus A/WSN/33(H1N1) flag tagged Polymerase basic protein 2/VHL (unknown origin) expressed in HEK293T cells assessed as degradation of PB2 expression at 0.1 to 10 uM incubated for 24 hrs by Western blotting analysis; type: cell-based; details: dose 0.1-10 µM
Influenza A virus [15] = assay: Anti-influenza activity against Influenza A virus H3N2 infected in HEK293T cells assessed as reduction in virus-induced cytopathic effect incubated for 48 hrs by CCK-8 assay; type: functional, organism-based; details: H3N2, HEK-293T
[16] = target: T4, von Hippel-Lindau disease tumor suppressor/Polymerase acidic protein (Influenza A virus (A/Puerto Rico/8/1934(H1N1))) (UniProt P03433+P40337); assay: PROTAC activity at Influenza A virus A/WSN/33(H1N1) flag tagged Polymerase acidic protein/VHL (unknown origin) expressed in HEK293T cells assessed as degradation of PA expression at 10 uM incubated for 24 hrs by Western blotting analysis; type: cell-based
Influenza A virus [17] = assay: Anti-influenza activity against Influenza A virus A/PR/8/34 (H1N1) infected in MDCK cells assessed as inhibition of viral growth at 1.6 nM incubated for 48 hrs by luciferase assay relative to control; type: functional
[18] = Intrinsic clearance in dog liver microsomes preincubated for 5 mins followed by NADPH addition and measured for 45 mins by LC-MS analysis; type: ADME, Canis lupus familiaris, Microsome; details: time 50 min, read-out: CLH
[19] = Stability in human plasma assessed as compound remaining measured after 15 mins by LC-MS/MS analysis; type: ADME, cell-free; details: read-out: Stability
[20] = Stability in human plasma assessed as compound remaining measured after 120 mins by LC-MS/MS analysis; type: ADME, cell-free; details: read-out: Stability
[21] = Intrinsic clearance in human liver microsomes preincubated for 5 mins followed by NADPH addition and measured for 45 mins by LC-MS analysis; type: ADME, Microsome; details: time 50 min, read-out: CLH
[22] = Half life in mouse liver microsomes preincubated for 5 mins followed by NADPH addition and measured for 45 mins by LC-MS analysis; type: ADME, Microsome; details: time 50 min
[23] = Hepatic extraction ratio in dog liver microsomes preincubated for 5 mins followed by NADPH addition and measured for 45 mins by LC-MS analysis; type: ADME, Canis lupus familiaris, Microsome; details: time 50 min, read-out: ERH
[24] = Hepatic clearance in mouse liver microsomes preincubated for 5 mins followed by NADPH addition and measured for 45 mins by LC-MS analysis; type: ADME, Microsome; details: time 50 min
[25] = Half life in dog liver microsomes preincubated for 5 mins followed by NADPH addition and measured for 45 mins by LC-MS analysis; type: ADME, Canis lupus familiaris, Microsome; details: time 50 min
[26] = Cytotoxicity against dog MDCK cells assessed as reduction in cell viability incubated for 48 hrs by CCK-8 assay; type: toxicity, cell-based, Canis lupus familiaris
[27] = Hepatic clearance in human liver microsomes preincubated for 5 mins followed by NADPH addition and measured for 45 mins by LC-MS analysis; type: ADME, Microsome; details: time 50 min
[28] = Half life in human liver microsomes preincubated for 5 mins followed by NADPH addition and measured for 45 mins by LC-MS analysis; type: ADME, Microsome; details: time 50 min
[29] = Stability in human plasma assessed as compound remaining measured after 60 mins by LC-MS/MS analysis; type: ADME, cell-free; details: read-out: Stability
[30] = Intrinsic clearance in mouse liver microsomes preincubated for 5 mins followed by NADPH addition and measured for 45 mins by LC-MS analysis; type: ADME, Microsome; details: time 50 min, read-out: CLH
[31] = Stability in human plasma assessed as compound remaining measured after 5 mins by LC-MS/MS analysis; type: ADME, cell-free; details: read-out: Stability
Influenza A virus [32] = assay: Anti-influenza activity against Influenza A virus A/PR/8/34 (H1N1) infected in MDCK cells assessed as reduction in virus-induced cytopathic effect incubated for 48 hrs by CCK-8 assay; type: functional, organism-based
[33] = target: T4, von Hippel-Lindau disease tumor suppressor/Polymerase acidic protein (Influenza A virus (A/Puerto Rico/8/1934(H1N1))); assay: PROTAC activity at Influenza A virus A/WSN/33(H1N1) flag tagged Polymerase acidic protein/VHL (unknown origin) expressed in HEK293T cells assessed as degradation of PA expression at 0.02 to 10 uM incubated for 24 hrs by Western blotting analysis; type: cell-based; details: dose 0.02-10 µM
[34] = Binding affinity to Influenza A virus A/WSN/33(H1N1) flag tagged Polymerase acidic protein assessed as dissociation constant incubated for 48 hrs by microscale thermophoresis assay; details: hek293t
Influenza A virus [35] = assay: Anti-influenza activity against Influenza A virus A/WSN/33(H1N1) infected in MDCK cells assessed as downregulation of nucleoprotein expression at 1.56 to 100 nM incubated for 24 hrs by Western blotting analysis; type: functional, organism-based; details: dose 1.56-100 nM
[36] = Stability in human plasma assessed as compound remaining by LC-MS/MS analysis; type: ADME, cell-free
[37] = Hepatic extraction ratio in human liver microsomes preincubated for 5 mins followed by NADPH addition and measured for 45 mins by LC-MS analysis; type: ADME, Microsome; details: time 50 min, read-out: ERH
[38] = Hepatic extraction ratio in mouse liver microsomes preincubated for 5 mins followed by NADPH addition and measured for 45 mins by LC-MS analysis; type: ADME, Microsome; details: time 50 min, read-out: ERH
[39] = Hepatic clearance in dog liver microsomes preincubated for 5 mins followed by NADPH addition and measured for 45 mins by LC-MS analysis; type: ADME, Canis lupus familiaris, Microsome; details: time 50 min
[40] = Stability in human plasma assessed as compound remaining measured after 30 mins by LC-MS/MS analysis; type: ADME, cell-free; details: read-out: Stability
[41] = target: T4, von Hippel-Lindau disease tumor suppressor/Polymerase acidic protein (Influenza A virus (A/Puerto Rico/8/1934(H1N1))); assay: PROTAC activity at Influenza A virus A/WSN/33(H1N1) flag tagged Polymerase acidic protein/VHL (unknown origin) expressed in HEK293T cells assessed as degradation of PA expression at 10 uM incubated for 16 hrs by Western blotting analysis; type: cell-based
[42] = target: T4, von Hippel-Lindau disease tumor suppressor/Polymerase acidic protein (Influenza A virus (A/Puerto Rico/8/1934(H1N1))); assay: PROTAC activity at Influenza A virus A/WSN/33(H1N1) flag tagged Polymerase acidic protein/VHL (unknown origin) expressed in HEK293T cells assessed as degradation of PA expression at 5 uM incubated for 24 hrs by Western blotting analysis; type: cell-based

T2 sequence (P03431 whole entry, looked up): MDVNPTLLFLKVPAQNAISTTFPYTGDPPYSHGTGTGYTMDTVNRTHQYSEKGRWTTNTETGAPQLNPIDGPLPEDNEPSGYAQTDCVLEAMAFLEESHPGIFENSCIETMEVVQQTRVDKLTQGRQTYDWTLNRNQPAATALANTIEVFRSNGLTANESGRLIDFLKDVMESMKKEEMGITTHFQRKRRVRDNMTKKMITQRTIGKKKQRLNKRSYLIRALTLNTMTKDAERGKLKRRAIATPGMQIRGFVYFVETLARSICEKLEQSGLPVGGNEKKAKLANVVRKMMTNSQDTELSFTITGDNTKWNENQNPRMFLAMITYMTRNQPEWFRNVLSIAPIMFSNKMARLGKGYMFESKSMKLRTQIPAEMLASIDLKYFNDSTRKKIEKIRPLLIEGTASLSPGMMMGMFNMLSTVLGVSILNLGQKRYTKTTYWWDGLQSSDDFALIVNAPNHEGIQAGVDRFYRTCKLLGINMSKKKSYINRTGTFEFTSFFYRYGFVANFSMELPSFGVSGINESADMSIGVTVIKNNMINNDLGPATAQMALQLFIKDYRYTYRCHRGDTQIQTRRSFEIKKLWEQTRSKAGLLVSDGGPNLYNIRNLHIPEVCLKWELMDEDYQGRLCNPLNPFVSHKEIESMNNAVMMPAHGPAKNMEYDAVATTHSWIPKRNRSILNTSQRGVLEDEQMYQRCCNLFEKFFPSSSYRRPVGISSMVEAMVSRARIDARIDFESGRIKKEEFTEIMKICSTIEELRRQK
T2 sequence (P40337 whole entry, looked up): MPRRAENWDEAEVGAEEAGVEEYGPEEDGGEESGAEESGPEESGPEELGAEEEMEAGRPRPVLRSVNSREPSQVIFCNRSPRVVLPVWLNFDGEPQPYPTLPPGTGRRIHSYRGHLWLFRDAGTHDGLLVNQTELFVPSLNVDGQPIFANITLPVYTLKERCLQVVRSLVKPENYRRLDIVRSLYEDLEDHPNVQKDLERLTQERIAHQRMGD
T3 sequence (P03428 whole entry, looked up): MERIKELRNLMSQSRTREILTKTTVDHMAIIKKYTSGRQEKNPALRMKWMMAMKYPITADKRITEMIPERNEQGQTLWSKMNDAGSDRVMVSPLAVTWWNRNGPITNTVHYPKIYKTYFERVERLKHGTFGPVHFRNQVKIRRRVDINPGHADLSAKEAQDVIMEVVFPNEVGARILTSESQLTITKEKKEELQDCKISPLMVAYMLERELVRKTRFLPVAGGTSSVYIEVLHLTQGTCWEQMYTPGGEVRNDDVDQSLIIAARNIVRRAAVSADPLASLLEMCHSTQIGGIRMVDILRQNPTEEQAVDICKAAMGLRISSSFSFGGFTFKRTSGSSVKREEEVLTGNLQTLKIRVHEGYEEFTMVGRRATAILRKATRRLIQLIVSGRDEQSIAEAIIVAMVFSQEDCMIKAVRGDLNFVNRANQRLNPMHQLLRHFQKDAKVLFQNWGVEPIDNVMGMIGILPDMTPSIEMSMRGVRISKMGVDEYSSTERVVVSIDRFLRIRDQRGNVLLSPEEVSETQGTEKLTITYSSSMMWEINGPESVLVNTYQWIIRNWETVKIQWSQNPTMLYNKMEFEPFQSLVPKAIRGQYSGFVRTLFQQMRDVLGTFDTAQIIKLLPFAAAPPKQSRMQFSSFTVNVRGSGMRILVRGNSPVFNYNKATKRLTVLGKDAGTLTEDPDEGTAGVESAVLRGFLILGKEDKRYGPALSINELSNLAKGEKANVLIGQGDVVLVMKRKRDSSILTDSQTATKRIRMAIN
T3 sequence (P40337 whole entry, looked up): as the sequence (P40337 whole entry, looked up) above
T1 sequence (P10275 whole entry, looked up): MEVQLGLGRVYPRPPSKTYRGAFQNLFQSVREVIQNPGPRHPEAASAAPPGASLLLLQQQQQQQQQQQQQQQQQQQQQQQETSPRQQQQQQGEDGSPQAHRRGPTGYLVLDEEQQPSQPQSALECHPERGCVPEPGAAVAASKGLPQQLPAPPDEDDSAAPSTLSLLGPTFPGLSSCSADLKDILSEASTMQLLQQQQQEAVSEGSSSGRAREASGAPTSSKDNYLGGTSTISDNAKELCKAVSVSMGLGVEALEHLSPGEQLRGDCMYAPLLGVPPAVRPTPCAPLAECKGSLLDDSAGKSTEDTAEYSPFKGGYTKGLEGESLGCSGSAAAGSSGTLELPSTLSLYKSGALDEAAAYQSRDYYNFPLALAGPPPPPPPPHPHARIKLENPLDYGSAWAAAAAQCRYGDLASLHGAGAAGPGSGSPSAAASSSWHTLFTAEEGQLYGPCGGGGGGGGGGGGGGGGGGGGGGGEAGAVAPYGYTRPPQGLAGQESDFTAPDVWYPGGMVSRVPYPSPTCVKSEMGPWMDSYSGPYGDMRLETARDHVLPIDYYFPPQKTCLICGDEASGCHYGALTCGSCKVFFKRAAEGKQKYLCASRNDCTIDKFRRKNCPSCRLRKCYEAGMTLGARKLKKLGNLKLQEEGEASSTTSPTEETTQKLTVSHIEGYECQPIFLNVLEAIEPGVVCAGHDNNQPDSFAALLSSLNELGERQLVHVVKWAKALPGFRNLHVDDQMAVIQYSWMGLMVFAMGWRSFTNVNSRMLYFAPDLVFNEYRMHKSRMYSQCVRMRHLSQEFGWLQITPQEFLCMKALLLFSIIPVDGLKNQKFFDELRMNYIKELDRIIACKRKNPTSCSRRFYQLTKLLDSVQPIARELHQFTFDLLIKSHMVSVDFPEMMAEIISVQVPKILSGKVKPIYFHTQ
T1 sequence (Q96SW2 whole entry, looked up): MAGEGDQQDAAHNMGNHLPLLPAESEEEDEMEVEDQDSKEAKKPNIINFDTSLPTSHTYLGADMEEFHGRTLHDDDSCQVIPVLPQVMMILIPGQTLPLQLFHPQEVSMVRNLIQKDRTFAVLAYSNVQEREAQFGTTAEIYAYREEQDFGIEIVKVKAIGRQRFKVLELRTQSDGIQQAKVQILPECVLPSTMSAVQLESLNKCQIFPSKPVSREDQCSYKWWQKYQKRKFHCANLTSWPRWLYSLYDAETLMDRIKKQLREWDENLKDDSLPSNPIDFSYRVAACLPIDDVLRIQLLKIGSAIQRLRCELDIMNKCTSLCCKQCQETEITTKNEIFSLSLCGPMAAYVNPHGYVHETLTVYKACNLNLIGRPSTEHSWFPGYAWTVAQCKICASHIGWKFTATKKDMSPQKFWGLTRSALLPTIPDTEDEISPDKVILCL

CC(C)(C)c1ccc(C(=O)NC(=S)Nc2ccc(NC(=O)CCCCCCCNc3cccc4c3CN(C3CCC(=O)NC3=O)C4=O)cc2)cc1 (stereo not given)
Activity [1]: Active
Activity [2]: Active
EC50 (Influenza A virus [3]): > 10000 nM

CC(C)(C)OC(=O)NCCCC[C@H](NC(=O)OC(C)(C)C)C(=O)NCCCCCCCCC(=O)Nc1ccc(NC(=S)NC(=O)c2ccc(C(C)(C)C)cc2)cc1
CC50 at 48 h [4]: > 100000 nM
Activity [5]: inactive
Activity [6]: inactive
Activity [7]: inactive
EC50 (Influenza B virus [8]): 167 nM
Activity [9]: inactive
Activity [10]: inactive
DC50 [11]: 650 nM
EC50 (Influenza B virus [12]): 130 nM
selectivity ratio [13]: > 4760
Activity [14]: inactive
EC50 (Influenza A virus [15]): > 10000 nM
Activity [16]: Active
EC50 (Influenza A virus [3]): 21 nM

CC(C)(C)c1ccc(C(=O)NC(=S)Nc2ccc(N)cc2)cc1
CC50 at 48 h [4]: 72300 nM
inhibition at 0.0016 µM (Influenza A virus [17]): 18%
CLint scaled [18]: 76.5 mL/min/kg
remaining at 0.25 h [19]: 102%
remaining at 2 h [20]: 112%
CLint scaled [21]: 11.6 mL/min/kg
half-life [22]: 21.9 min
hepatic extraction ratio at 0.75 h [23]: 0.712
CLhep predicted [24]: 66.1 mL/min/kg
half-life [25]: 26.1 min
CC50 at 48 h [26]: > 200000 nM
EC50 (Influenza B virus [8]): 167 nM
CLhep predicted [27]: 7.43 mL/min/kg
half-life [28]: 138 min
remaining at 1 h [29]: 113%
CLint scaled [30]: 249 mL/min/kg
remaining at 5 min [31]: 101%
EC50 (Influenza A virus [32]): 24 nM
Activity [33]: inactive
EC50 (Influenza B virus [12]): 151 nM
Kd [34]: 487000 nM
selectivity ratio [13]: 218
EC50 (Influenza A virus [15]): > 10000 nM
Activity (Influenza A virus [35]): Active
Stability [36]: 100%
hepatic extraction ratio at 0.75 h [37]: 0.359
hepatic extraction ratio at 0.75 h [38]: 0.735
EC50 (Influenza A virus [3]): 332 nM
CLhep predicted [39]: 22 mL/min/kg
remaining at 0.5 h [40]: 104%

Cc1ncsc1-c1ccc(CNC(=O)[C@@H]2C[C@@H](O)CN2C(=O)C(NCCCCCCCC(=O)Nc2ccc(NC(=S)NC(=O)c3ccc(C(C)(C)C)cc3)cc2)C(C)(C)C)cc1 (mixture of isomers)
Activity [41]: Active
Activity [42]: Active
EC50 (Influenza A virus [3]): > 10000 nM

Reference: ChEMBL document CHEMBL5512674, “Novel Acyl Thiourea-Based Hydrophobic Tagging Degraders Exert Potent Anti-Influenza Activity through Two Distinct Endonuclease Polymerase Acidic-Targeted Degradation Pathways” (J Med Chem, 2024)
